Data published in patent publication US8217031B2, “Heteroaryl derivatives” (Nippon Shinyaku Co., Ltd., priority 2007, dated 2012).
Where a name gives a salt, the structure may show the parent alone.

Tests used:
rats under anesthesia = assay: Measurement of urine leak point pressure in rats under anesthesia; format: in vivo, rat; conditions: intravenous administration of not more than 10 mg/kg; female rats, urethane anesthesia, thoracic spine cut at T8 to T9
Experimental: Measurement of Urine Leak Point Pressure in Rats Under Anesthesia Under anesthesia with urethane (1.2 g/kg; subcutaneous administration), the thoracic spine of female rats of 8 to 12 weeks of age (Japan SLC Inc.) was cut at the level of T8 to T9 so that the micturition reflex was made to disappear, then the abdomen was subjected to a median incision to expose the bladder and then a cannula was inserted into the bladder. An appropriate amount (ca. 0.4 mL) of a physiological saline was previously infused into the bladder, both sides of the bladder were gradually pressed with two cotton buds and the inner pressure of the bladder when the physiological saline solution leaked out from the urethral orifice was measured as a pressure upon leakage of urine. The measurement was repeated several times until the measured values became stable and, after that, the test compound was intravenously administered and a pharmacological effect of the test compound was evaluated.

[1] = target: T1, [3H]serotonin re-uptake in synaptosome (Rattus norvegicus, UniProt P31652); assay: Inhibition of serotonin reuptake in rat cerebral cortex synaptosome; format: biochemical; conditions: Ki calculated from IC50 and Kd, read-out: Serotonin Reuptake Inhibiting Activity, Ki value
T1 construct: to give a synaptosome solution; from tissue; host or cells: rat cerebral cortex synaptosomes (male SD rats)
T1 sequence (P31652 whole entry): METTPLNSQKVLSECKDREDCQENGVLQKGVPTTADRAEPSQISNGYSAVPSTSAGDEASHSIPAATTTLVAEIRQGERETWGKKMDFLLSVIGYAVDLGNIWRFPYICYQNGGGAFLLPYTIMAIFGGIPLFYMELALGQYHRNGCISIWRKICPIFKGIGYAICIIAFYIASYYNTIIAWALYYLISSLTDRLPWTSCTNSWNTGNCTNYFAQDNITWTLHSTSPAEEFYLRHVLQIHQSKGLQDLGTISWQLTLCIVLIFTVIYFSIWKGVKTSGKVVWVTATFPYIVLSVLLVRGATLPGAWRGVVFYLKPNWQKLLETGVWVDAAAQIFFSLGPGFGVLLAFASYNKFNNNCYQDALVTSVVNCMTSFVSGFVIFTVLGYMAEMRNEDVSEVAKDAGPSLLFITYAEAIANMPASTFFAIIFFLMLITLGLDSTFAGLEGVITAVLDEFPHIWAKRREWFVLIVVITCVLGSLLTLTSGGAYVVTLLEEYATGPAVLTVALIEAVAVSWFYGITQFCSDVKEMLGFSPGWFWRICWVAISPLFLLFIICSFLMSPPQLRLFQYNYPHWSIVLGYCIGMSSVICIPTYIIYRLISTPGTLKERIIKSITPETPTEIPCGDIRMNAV
Experimental: (§1) Experiments for Inhibition of Serotonin Reuptake and Experiments for Inhibition of Norepinephrine Reuptake
(§2) Cerebral cortex of male SD rats (JAPAN SLC Inc.), over six weeks of age was excised and a 0.32M sucrose solution was added thereto in an amount of 10 mL per gram of the cerebral cortex followed by homogenizing. The homogenized solution was centrifuged, the supernatant thereof was further centrifuged at high speed and, to the resulting pellets, a PSS solution (pH 7.4; comprising 150 mM of NaCl, 4 mM of KCl, 1 mM of MgCl2, 2.5 mM of HEPES, 0.9 mg/mL of glucose, 0.176 mg/mL of ascorbic acid and 1 mM of pargylin) was added in an amount of 10 mL per gram of the pellets to give a synaptosome solution. A compound to be tested (100 μL) was added to 100 μL of the synaptosome solution and 700 μL of a 50 mM Tris buffer (pH 7.4; trihydroxylaminomethane) followed by subjecting to pre-incubation at 37° C. for 5 minutes. After the pre-incubation, 100 μL of [^3H]serotonin or [^3H]norepinephrine diluted to 10 nM and 20 nM, respectively, with a Tris buffer was added thereto followed by incubating at 37° C. for 5 minutes.
(§3) Synaptosome was recovered on a GF/B filter using a cell harvester and further washed three times using a washing solution (50 mM Tris buffer; pH 7.4; 4° C.). The filter was transferred to a vial, a scintillator was added thereto and the radiation activity was measured using a liquid scintillation counter.
(§4) Incidentally, the non-specific reaction was defined as the radiation activity under ice-cooling (4° C.) and the difference between the total radiation activity and the radiation activity under the non-specific reaction was adopted as the radiation activity specifically re-uptaken in the synaptosome. IC50 value was determined from the re-uptake inhibition rate in the presence of a test compound and, from IC50 value and the Kd value of [^3H]serotonin or [^3H]norepinephrine, Ki value of the test compound showing a re-uptake inhibiting activity of serotonin or norepinephrine, respectively, was calculated.

[2] = target: T2, [3H]norepinephrine re-uptake in synaptosome (Rattus norvegicus, UniProt Q9WTR4); assay: Inhibition of norepinephrine reuptake in rat cerebral cortex synaptosome; format: biochemical; conditions: Ki calculated from IC50 and Kd, read-out: Norepinephrine Reuptake Inhibiting Activity, Ki value
T2 construct: to give a synaptosome solution; from tissue; host or cells: rat cerebral cortex synaptosomes (male SD rats)
T2 sequence (Q9WTR4 1-597): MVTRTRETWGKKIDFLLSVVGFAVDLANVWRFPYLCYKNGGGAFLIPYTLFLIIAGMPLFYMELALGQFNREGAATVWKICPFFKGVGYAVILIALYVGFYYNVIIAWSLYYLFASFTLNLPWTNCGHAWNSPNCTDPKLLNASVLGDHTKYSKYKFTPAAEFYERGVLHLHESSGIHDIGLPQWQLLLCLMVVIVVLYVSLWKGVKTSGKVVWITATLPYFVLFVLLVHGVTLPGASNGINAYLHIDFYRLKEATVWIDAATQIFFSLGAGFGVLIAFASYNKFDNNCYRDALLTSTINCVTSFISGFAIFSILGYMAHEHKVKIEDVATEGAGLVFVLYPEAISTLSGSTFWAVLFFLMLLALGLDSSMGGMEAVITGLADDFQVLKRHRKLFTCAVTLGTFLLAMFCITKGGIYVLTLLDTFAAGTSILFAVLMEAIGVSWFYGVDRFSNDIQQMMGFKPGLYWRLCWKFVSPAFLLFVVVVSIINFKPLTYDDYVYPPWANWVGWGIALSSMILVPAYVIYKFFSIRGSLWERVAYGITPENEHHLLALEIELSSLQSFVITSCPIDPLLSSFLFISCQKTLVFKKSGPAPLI
Experimental: as §1, §2, §3, §4

| Ki [1] [nM] | Ki [2] [nM] | Compound | leak point pressure (pressure upon leakage of urine) (rats under anesthesia) |
| --- | --- | --- | --- |
| 1.7 | 5.6 | CN1CCC(Oc2cccc(Br)c2Cl)c2ccoc2C1.Cl (single isomer, unassigned; (+)) [Example 398, (+)-4-(3-Bromo-2-chlorophenyloxy)-7-methyl-5,6,7,8-tetrahydro-4H-furo[2,3-c]azepine hydrochloride] | raised the leak point pressure |
| 0.5 | 2.4 | CN1CCC(Oc2cccc(Cl)c2Cl)c2ccoc2C1.Cl (single isomer, unassigned; (+)) [Example 400, (+)-4-(2,3-Dichlorophenyloxy)-7-methyl-5,6,7,8-tetrahydro-4H-furo[2,3-c]azepine hydrochloride] | raised the leak point pressure |
| 1 | 3.2 | Cc1cc2c(o1)CN(C)CCC2Oc1cccc2ccccc12.Cl (single isomer, unassigned; (+)) [Example 401, (+)-2,7-Dimethyl-4-(naphthalen-1-yloxy)-5,6,7,8-tetrahydro-4H-furo[2,3-c]azepine hydrochloride] | raised the leak point pressure |
| 27.2 | 478 | CN1Cc2ccsc2C(Oc2cccc3ccccc23)C1 (stereo not shown) [Example 2, 5-Methyl-7-(naphthalen-1-yloxy)-4,5,6,7-tetrahydrothieno[3,2-c]pyridine] |  |
| 7.9 | 207 | Cc1cc2c(o1)CN(C)CC2Oc1ccc(Cl)c2ccccc12 (stereo not shown) [Example 84, 4-(4-Chloronaphthalene-1-yloxy)-2,6-dimethyl-4,5,6,7-tetrahydrofuro[2,3-c]pyridine hydrochloride] |  |
| 3.4 | 4 | Cc1cc2c(s1)CN(C)CCC2Oc1cccc2ccccc12.Cl (stereo not shown) [Example 102, 2,7-Dimethyl-4-(naphthalen-1-yloxy)-5,6,7,8-tetrahydro-4H-thieno[2,3-c]azepine hydrochloride] | raised the leak point pressure |
| 8.9 | 66.2 | CN1CCc2sccc2C(Oc2cccc3ccccc23)C1 (stereo not shown) [Example 109, 6-Methyl-4-(naphthalen-1-yloxy)-5,6,7,8-tetrahydro-4H-thieno[2,3-d]azepine hydrochloride] |  |
| 1.2 | 70.7 | CN1CCC(Oc2ccc(Cl)c3ccccc23)c2sccc2C1 (stereo not shown) [Example 115, 8-(4-Chloronaphthalen-1-yloxy)-5-methyl-5,6,7,8-tetrahydro-4H-thieno[3,2-c]azepine hydrochloride] |  |
| 4.1 | 8.4 | Cc1cc2c(o1)CN(C)CCC2Oc1cccc2ccccc12 (stereo not shown) [Example 140, 2,7-Dimethyl-4-(naphthalen-1-yloxy)-5,6,7,8-tetrahydro-4H-furo[2,3-c]azepine] |  |
| 6.8 | 57.5 | CN1CCC(Oc2cccc3ccccc23)c2occc2C1 (stereo not shown) [Example 157, 5-Methyl-8-(naphthalen-1-yloxy)-5,6,7,8-tetrahydro-4H-furo[3,2-c]azepine] |  |
| 3.8 | 12 | Cc1cc2c(o1)CN(C)CCC2Oc1cccc(Cl)c1Cl (stereo not shown) [Example 163, 4-(2,3-Dichlorophenyloxy)-2,7-dimethyl-5,6,7,8-tetrahydro-4H-furo[2,3-c]azepine] |  |
| 3.1 | 27.5 | CN1CCC(Oc2cccc(Br)c2Cl)c2ccoc2C1 (stereo not shown) [Example 177, 4-(3-Bromo-2-chlorophenyloxy)-7-methyl-5,6,7,8-tetrahydro-4H-furo[2,3-c]azepine] |  |
| 1 | 24.4 | CN1CCC(Oc2cccc3ccccc23)c2ccoc2C1 (stereo not shown) [Example 179, 7-Methyl-4-(naphthalen-1-yloxy)-5,6,7,8-tetrahydro-4H-furo[2,3-c]azepine hydrochloride] |  |
| 1.7 | 21.5 | Cc1cc2c(o1)CN(C)CCC2Oc1cccc(Br)c1Cl (stereo not shown) [Example 200, 4-(3-Bromo-2-chlorophenyloxy)-2,7-dimethyl-5,6,7,8-tetrahydro-4H-furo[2,3-c]azepine] |  |
| 0.9 | 4.1 | CN1CCC(Oc2cccc(Cl)c2Cl)c2ccoc2C1 (stereo not shown) [Example 213, 4-(2,3-Dichlorophenyloxy)-7-methyl-5,6,7,8-tetrahydro-4H-furo[2,3-c]azepine hydrochloride] |  |

Second part, the compound before the results:

| Compound | Ki [1] [nM] | Ki [2] [nM] | leak point pressure (pressure upon leakage of urine) (rats under anesthesia) |
| --- | --- | --- | --- |
| CN1Cc2occc2C(Oc2ccc(Cl)c(Cl)c2)C1.Cl (stereo not shown) [Example 21, 4-(3,4-Dichlorophenyloxy)-6-methyl-4,5,6,7-tetrahydrofuro[2,3-c]pyridine hydrochloride] |  |  | raised the leak point pressure |
| CCN1Cc2sccc2C(Oc2ccc(Cl)c(Cl)c2)C1 (stereo not shown) [Example 24, 4-(3,4-Dichlorophenyloxy)-6-ethyl-4,5,6,7-tetrahydrothieno[2,3-c]pyridine hydrochloride] | 9.5 | 279 |  |
| Cc1cc2c(o1)CN(C)CC2Oc1ccc(Cl)c(Cl)c1 (stereo not shown) [Example 57, 4-(3,4-Dichlorophenyloxy)-2,6-dimethyl-4,5,6,7-tetrahydrofuro[2,3-c]pyridine hydrochloride] | 14.1 | 244 |  |
| CN1Cc2occc2C(Oc2ccc(Br)c(Cl)c2)C1 (stereo not shown) [Example 66, 4-(4-Bromo-3-chlorophenyloxy)-6-methyl-4,5,6,7-tetrahydrofuro[2,3-c]pyridine hydrochloride] | 3.9 | 484 |  |
| Cc1cc2c(s1)CN(C)CC2Oc1ccc(Br)c(Br)c1 (stereo not shown) [Example 98, 4-(3,4-Dibromophenyloxy)-2,6-dimethyl-4,5,6,7-tetrahydrothieno[2,3-c]pyridine hydrochloride] | 8.6 | 455 |  |
| CN1CCC(Oc2ccc(Cl)c(Cl)c2)c2sccc2C1 (stereo not shown) [Example 108, 8-(3,4-Dichlorophenyloxy)-5-methyl-5,6,7,8-tetrahydro-4H-thieno[3,2-c]azepine hydrochloride] | 1.7 | 64.4 |  |
| Cc1cc2c(s1)CN(C)CCC2Oc1ccc(C(F)(F)F)cc1.Cl (stereo not shown) [Example 133, 2,7-dimethyl-4-[4-(trifluoromethyl)phenyloxy]-5,6,7,8-tetrahydro-4H-thieno[2,3-c]azepine hydrochloride] |  |  | raised the leak point pressure |
| Cc1cc2c(s1)CN(C)CCC2Oc1ccc(Br)c(Br)c1 (stereo not shown) [Example 135, 4-(3,4-Dibromophenyloxy)-2,7-dimethyl-5,6,7,8-tetrahydro-4H-thieno[2,3-c]azepine hydrochloride] | 5.4 |  |  |
| Cc1cc2c(s1)CN(C)CCC2Oc1cccc(Cl)c1Cl (stereo not shown) [Example 148, 4-(2,3-Dichlorophenyloxy)-2,7-dimethyl-5,6,7,8-tetrahydro-4H-thieno[2,3-c]azepine hydrochloride] | 2.1 | 2 |  |
| CN1CCC(Oc2cccc(Cl)c2Cl)c2ccsc2C1 (stereo not shown) [Example 149, 4-(2,3-Dichlorophenyloxy)-7-methyl-5,6,7,8-tetrahydro-4H-thieno[2,3-c]azepine hydrochloride] | 1.8 | 1.7 |  |
| CN1CCC(Oc2cccc(Cl)c2Cl)c2occc2C1 (stereo not shown) [Example 168, 8-(2,3-Dichlorophenyloxy)-5-methyl-5,6,7,8-tetrahydro-4H-furo[3,2-c]azepine] | 6.6 | 23.8 |  |
| CN1CCC(Oc2ccc(C(N)=O)cc2Cl)c2ccoc2C1 (stereo not shown) [Example 225, 4-(2-Chloro-4-carbamoylphenyloxy)-7-methyl-5,6,7,8-tetrahydro-4H-furo[2,3-c]azepine hydrochloride] | 18.3 | 11.7 |  |
